Source: PMC12073298, “Design, Synthesis, and Biological Evaluation of Naphthoquinone Salts as Anticancer Agents” (Molecules, 2025)
Values belong to the molecule of their own block, whether it stands above or below them.

Columns and labels:
[1] = test system: normal endometrial stromal cells (MAD11); assay: MTT cell viability assay, MAD11 cells; assay type: cell-based, human; conditions: Homo sapiens, MAD11, 48 h, MAD11 non-cancerous cells, n = 3 biological replicates, read-out: Mean IC50 (μM) MAD11 ± SD
Method: (§1) The cytotoxic effects of the synthesized salt compounds were assessed against human endometrial cancer cells (HEC1A) and normal endometrial stromal cells (MAD11) using the MTT cell viability assay. BH10 was used as the reference compound.
(§2) Reagents and equipment: phosphate-buffered saline (PBS) (Sigma Aldrich, St. Louis, MO, USA), 10× Trypsin-EDTA solution (Sigma Aldrich, 59418C), Dulbecco’s Modified Eagle’s Medium (Sigma Aldrich), foetal bovine serum (FBS), and 100× penicillin-streptomycin solution (Sigma Aldrich P4333). The MTT reagent was prepared by dissolving 5 mg/mL MTT powder in sterile PBS, followed by filtration, whereas the MTT solvent contained 4 mM HCl and 0.1% Nonidet P-40 in isopropanol. Dimethyl sulfoxide (DMSO) was also sourced from Sigma Aldrich. Absorbance measurements were acquired using Kaleido 1.0 software coupled with an EnSight™ HH3400 Multimode Plate Reader (PerkinElmer, Waltham, MA, USA). HEC-1-A endometrial cancer cells were obtained from ATCC, while MAD11 endometrial stromal cells were provided by Dr. Hui Li (University of Virginia). MAD11 cells, derived from non-cancerous donors, were immortalized via human telomerase reverse transcriptase (hTERT).
(§3) Method: The methods were adapted from Byrne et al. (2014). Cells were cultured in DMEM supplemented with 10% FBS and 1% Pen-Strep solution (100 U/mL penicillin and 0.1 mg/mL streptomycin). Upon reaching ~70% confluence, the cells were washed with sterile PBS and detached using a 1× trypsin-EDTA solution. The cells were then resuspended in culture media, counted, and seeded into sterile 96-well tissue culture plates (2500 cells per well for MAD11; 5000 cells per well for HEC-1-A). The cells were incubated at 37 °C with 5% CO2 for 24 h prior to drug treatment. Drugs were serially diluted in culture medium to final concentrations of 100, 50, 25, 12.5, 6.3, 3.1, 1.6, and 0.8 µM per well and applied in triplicate. For compounds 7a–f and 15, as their IC₅₀ values were below 0.8 µM, an additional set of three biological replicates was conducted using a lower concentration range (500, 250, 125, 63, 31, 16, 8, and 4 nM). To minimize variations due to DMSO (vehicle), both drug dilutions and control wells received the same final concentration of DMSO. After 48 h of incubation at 37 °C with 5% CO2, cell viability was assessed by adding 20 µL/well of MTT reagent for 3 h. Supernatants were aspirated, and formazan crystals were dissolved in MTT solvent before absorbance was measured at 590/620 nm using an EnSight™ HH3400 Multimode Plate Reader. Cell viability was expressed as a percentage of the vehicle (DMSO-treated) control, with results reported as mean ± SEM from three independent experiments. IC50 values were determined using GraphPad Prism 9.

[2] = test system: human endometrial cancer cells (HEC1A); assay: MTT cell viability assay, HEC1A cells; assay type: cell-based
Method: as §1, §2, §3

[3] = test system: human endometrial cancer cells (HEC1A); conditions: hit compound, earlier work; cited from earlier work
[4] = test system: Indoleamine 2,3-dioxygenase 1 (IDO1); design: method as in ref 9-10 (a number printed in a supplementary file, which may have a reference list of its own: not looked up in the article's list); conditions: cited from earlier work
Hexokinase II = test system: Hexokinase II; design: method as in ref 2-4 (a number printed in a supplementary file, which may have a reference list of its own: not looked up in the article's list); conditions: cited from earlier work
GLUT1 = test system: GLUT1; design: method as in ref 5-6 (a number printed in a supplementary file, which may have a reference list of its own: not looked up in the article's list); conditions: cited from earlier work
[5] = test system: Pyruvate Kinase M2 (PKM2); design: method as in ref 7-8 (a number printed in a supplementary file, which may have a reference list of its own: not looked up in the article's list); conditions: cited from earlier work
[6] = test system: Survivin suppression (indirect); design: method as in ref 13 (a number printed in a supplementary file, which may have a reference list of its own: not looked up in the article's list); conditions: cited from earlier work
[7] = test system: receptor-interacting protein kinase 2 (RIPK2); design: method as in ref 11-12 (a number printed in a supplementary file, which may have a reference list of its own: not looked up in the article's list); conditions: cited from earlier work
[8] = reported target as listed, test system not given, read-out: IC50 (Table S1)

IC50 ([2]; Homo sapiens, HEC-1-A, 48 h, HEC1A cells, MTT, 48 h, n = 3 biological replicates, read-out: Mean IC50 (μM) HEC1A ± SD): 11.8 ± 5.19 µM
Compound: O=C1C(Cl)=C(NCCN2CCOCC2)C(=O)c2ccccc21 [BH10, reference compound]
IC50 [1]: 28.2 ± 12.2 µM
Selectivity Ratio ([2]; IC50 value from MAD11 cells divided by the IC50 value from HEC1A cells): 2.38
selective toxicity (IC50 value in non-cancerous cells/IC50 value of cancer cells) [3]: 2.38

Compound: CC(C)=CCC1=C(O)C(=O)c2ccccc2C1=O [Lapachol]
Selectivity Notes (Table S1) ([4]; Table S1 comparison): Limited
IC50 [4, 8]: 25 µM

Compound: O=C(O)c1nn(Cc2ccc(Cl)cc2Cl)c2ccccc12 [Lonidamine]
Selectivity Notes (Table S1) (Hexokinase II; Table S1 comparison): Low
IC50 (Hexokinase II; [8]): 170 µM

Compound: O=C(CCc1ccc(O)cc1)c1c(O)cc(O)cc1O [Phloretin]
Selectivity Notes (Table S1) (GLUT1; Table S1 comparison): Limited
IC50 (GLUT1; [8]): ~2000 nM

Compound: CC(C)=CC[C@@H](O)C1=CC(=O)c2c(O)ccc(O)c2C1=O [Shikonin]
Selectivity Notes (Table S1) ([5]; Table S1 comparison): Low
IC50 [5, 8]: 19.9 µM

Compound: COCCn1c2c([n+](Cc3cnccn3)c1C)C(=O)c1ccccc1C2=O [YM155]
Selectivity Notes (Table S1) ([6]; Table S1 comparison): 18
IC50 [6, 8]: 13.7 nM

Compound: Cc1n(Cc2ccccc2)c2c([n+]1Cc1ccc(F)cc1)C(=O)c1ccccc1C2=O [cRIPGBM]
Selectivity Notes (Table S1) ([7]; Table S1 comparison): Variable, brain-specific
IC50 [7, 8]: 27 nM
